In patent publication EP1248603B1, “USE OF PARTICULAR COMPOUNDS FOR PROPHYLAXIS AND TREATMENT OF HEPATITIS C” (Morphochem AG, priority 2000, dated 2001):
pIC50: −log10 of the molar value. Like-named read-outs stand apart in the source and are kept apart here.

Target: T1, NS3 Proteinase (Hepatitis C virus genotype 1b, UniProt P26663)
T1 construct: beschriebenen NS3 Proteinase-Assay bestimmt
Assay: NS3 proteinase assay (analogous to Taliani et al., Analytical Biochemistry 240 (1996) 60-67; evaluation with GraFit 4)
Assay type: biochemical
Description: Die IC50-Werte wurden analog zu dem in: M. Taliani et al., Analytical Biochemistry, 240 (1996) 60-67 beschriebenen NS3 Proteinase-Assay bestimmt. Die Auswertung erfolgte mit Hilfe des Programms "GraFit 4" der Firma Erithacus Software Ltd. (Staines, Middlesex, UK).

T1 sequence (P26663 1027-1657, other chains not shown): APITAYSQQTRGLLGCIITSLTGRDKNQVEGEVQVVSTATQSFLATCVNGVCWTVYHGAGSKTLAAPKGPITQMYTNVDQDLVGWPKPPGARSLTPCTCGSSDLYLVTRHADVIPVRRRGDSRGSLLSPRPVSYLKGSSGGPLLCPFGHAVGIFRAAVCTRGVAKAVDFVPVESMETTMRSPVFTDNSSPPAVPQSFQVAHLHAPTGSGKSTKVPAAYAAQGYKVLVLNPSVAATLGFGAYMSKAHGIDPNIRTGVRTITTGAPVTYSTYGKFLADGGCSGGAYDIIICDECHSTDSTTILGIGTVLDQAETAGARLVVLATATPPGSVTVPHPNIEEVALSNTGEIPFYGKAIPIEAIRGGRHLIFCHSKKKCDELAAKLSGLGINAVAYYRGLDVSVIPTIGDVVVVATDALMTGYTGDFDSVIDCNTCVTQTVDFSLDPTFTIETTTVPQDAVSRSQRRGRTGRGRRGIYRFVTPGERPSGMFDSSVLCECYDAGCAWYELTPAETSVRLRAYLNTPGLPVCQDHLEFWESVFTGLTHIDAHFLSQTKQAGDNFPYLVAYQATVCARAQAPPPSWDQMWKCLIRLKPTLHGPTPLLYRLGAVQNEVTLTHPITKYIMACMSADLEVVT

Row | pIC50 (read-out: IC50) | Compound | pIC50
1 | – | O=C1C=CC(=O)c2ccccc21 [Beispiel 2, 1,4-Naphthochinon] | 4.70
2 | 4.89 | Nc1ccc(O)c2ccccc12 [Beispiel 3, 1-Amino-4-naphthol] | –
3 | 4.60 | Oc1ccc(NCc2ccccc2)c2ccccc12 [Beispiel 4, 1-Benzylamino-4-naphthol] | –
4 | 4.29 | Nc1ccc(O)c2ncccc12 [Beispiel 5, 5-Amino-8-hydroxychinolin] | –

Row | Compound | pIC50 (read-out: IC50) | pIC50
5 | CC1=CC(=O)c2ccccc2C1=O [Beispiel 1, Menadion] | 4.35 | –
